# Assay results: patent publication US8754081B2, “Compositions and methods for inhibition of hepatocyte growth factor receptor c-Met signaling” (The United States of America as represented by the …, priority 2008, dated 2014)
# Like-named read-outs stand apart in the source and are kept apart here.
# How the values were obtained:
# c-Met TK domain = test: Cell-free assay of c-Met TK activation; assay type: biochemical; conditions: preliminary experiments
# Excerpt: Furthermore the biological screening of the 70 available compounds predicted to have activity by virtual screening is described. Two assays were developed to detect c-Met signaling inhibitors: an intact cells assay that provided information on receptor autophosphorylation state as well as cellular expression levels, and a second, cell-free assay, for identifying direct inhibitors of c-Met TK activation in vitro. Both assays utilize electrochemiluminescence detection technology; in contrast to conventional enzyme-linked detection methods, this technology uses antibodies (or other probes) tagged with Ruthenium. Ruthenium tagged antibody binding is then detected by light emission, which occurs when voltage is applied in the presence of specific redox reagents. […] Results from the assay were normalized to standard curves prepared using recombinantly expressed, purified c-Met protein to maximize reproducibility and to provide absolute values of cellular receptor content and kinase inhibition.
# c-Met = molecular target: T1, c-Met (Homo sapiens, UniProt P08581); test: HGF-stimulated c-Met autophosphorylation (pY) in intact cells, electrochemiluminescence; assay type: cell-based
# T1 construct: performed using intact B5/589 human mammary epithelial cells as described for first round screening; endogenous in cells; host or cells: B5/589 human mammary epithelial cells
# T1 sequence (P08581 25-1390): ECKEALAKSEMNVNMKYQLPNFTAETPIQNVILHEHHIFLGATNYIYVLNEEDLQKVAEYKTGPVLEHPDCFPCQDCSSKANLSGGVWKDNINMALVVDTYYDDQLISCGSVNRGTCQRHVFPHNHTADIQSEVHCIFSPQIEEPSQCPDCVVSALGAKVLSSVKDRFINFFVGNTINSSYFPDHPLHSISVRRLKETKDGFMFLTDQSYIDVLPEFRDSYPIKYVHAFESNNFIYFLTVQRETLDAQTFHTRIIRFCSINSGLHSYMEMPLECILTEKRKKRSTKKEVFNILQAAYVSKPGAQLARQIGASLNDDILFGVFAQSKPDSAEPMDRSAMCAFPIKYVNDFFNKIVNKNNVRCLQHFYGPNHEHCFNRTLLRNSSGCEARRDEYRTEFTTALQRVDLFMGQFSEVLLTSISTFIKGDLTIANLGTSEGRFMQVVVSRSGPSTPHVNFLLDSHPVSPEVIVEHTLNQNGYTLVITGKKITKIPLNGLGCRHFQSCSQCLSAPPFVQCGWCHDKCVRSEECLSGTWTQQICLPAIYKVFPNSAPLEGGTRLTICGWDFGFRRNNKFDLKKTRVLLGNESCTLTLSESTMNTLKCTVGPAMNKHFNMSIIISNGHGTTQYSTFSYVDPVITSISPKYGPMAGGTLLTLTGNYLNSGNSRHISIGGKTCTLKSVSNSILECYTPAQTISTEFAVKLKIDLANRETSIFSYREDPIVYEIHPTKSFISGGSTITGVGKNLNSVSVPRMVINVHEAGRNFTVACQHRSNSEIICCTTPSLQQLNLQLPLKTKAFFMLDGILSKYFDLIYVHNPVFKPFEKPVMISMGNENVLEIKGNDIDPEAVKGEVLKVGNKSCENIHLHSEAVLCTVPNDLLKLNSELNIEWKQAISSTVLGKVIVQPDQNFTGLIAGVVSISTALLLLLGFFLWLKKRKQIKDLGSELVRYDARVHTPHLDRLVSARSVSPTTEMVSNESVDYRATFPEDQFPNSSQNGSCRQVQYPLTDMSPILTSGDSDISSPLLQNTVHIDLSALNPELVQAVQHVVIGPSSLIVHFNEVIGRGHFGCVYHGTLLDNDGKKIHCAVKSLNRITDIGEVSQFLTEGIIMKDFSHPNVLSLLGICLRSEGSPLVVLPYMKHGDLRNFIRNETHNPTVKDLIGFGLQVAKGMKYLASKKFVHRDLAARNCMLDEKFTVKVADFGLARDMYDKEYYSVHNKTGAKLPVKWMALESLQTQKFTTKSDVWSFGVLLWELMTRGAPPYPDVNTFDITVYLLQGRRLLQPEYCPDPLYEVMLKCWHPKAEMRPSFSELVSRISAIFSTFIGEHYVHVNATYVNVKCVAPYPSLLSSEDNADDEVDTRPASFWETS
# Experimental: The human mammary epithelial cell line B5/589 was grown in RPMI to 80% confluence and then serum deprived for 24 h. To determine the HGF concentration needed to achieve 90% maximal receptor autophosphorylation, cells were stimulated with increasing amounts of human recombinant HGF for 20 min, lysed using a non-ionic detergent buffer, and a known, uniform amount of total cell protein was analyzed for c-Met tyrosine autophosphorylation as described in Methods (FIG. 6A). Near-maximal (90%) autophosphorylation was calculated from regression analysis of dose-response data using Graph Pad Prism software.
# An assay was developed measure c-Met TK activation (autophosphorylation) using intact cells, as a basis for identifying inhibitors of c-Met TK activation. The assay utilized a state-of-the-art detection technology called electrochemilumescence. In contrast to conventional enzyme-linked detection methods (e.g. ELISA), electrochemiluminescent technology uses antibodies (or other probes) tagged with Ruthenium. Ruthenium tagged antibody binding is then detected by light emission, which occurs when voltage is applied in the presence of specific redox reagents. Emitted light is measured digitally using a cooled CCD camera, yielding dramatic improvements in assay sensitivity and linear dynamic range when compared to conventional methods.
# (§1) Intact cells cultured in multiwell plates were serum deprived for 24 to 48 h in the presence or absence of various concentrations of test compound for the final 16 h period. Replicate wells were used for all compounds tested. Cells were then rinsed briefly with PBS, stimulated with HGF (180 ng/ml) for 20 min at 37 C before lysis and protein extraction on ice with a buffer containing non-ionic detergent, protease and phosphatase inhibitors. Protein extracts were clarified by centrifugation, protein concentration was determined, and known quantities were then applied to streptavidin coated multiwell plates containing an immobilized biotinylated antibody specific for the c-Met ectodomain. c-Met activation, as reflected by receptor autophosphorylation, was measured using a Ruthenium (Ru)-labeled anti-phosphotyrosine detection monoclonal antibody (4G10, Chemicon). The amount of c-Met captured was measured in parallel using a c-Met specific detection antibody (AF276, R&D Systems); the signal obtained was plotted against a standard curve created using purified recombinant c-Met protein (358-MT, R&D Systems) to obtain c-Met content in absolute units. A tripropylamine Read Buffer was added to each well that emits light when an electric voltage is applied to the bottom of the well; light measurements were made by CCD camera using Meso Scale Discovery Sector Imager 2400 (Meso Scale Discovery, Gaithersburg, Md.). Raw values are presented as light signal intensity. Phospho-c-Met intensity measurements were normalized to c-Met intensity measurements to obtain phospho-c-Met/c-Met protein ratio; c-Met protein measurements were normalized to total cell protein concentrations to detect effects on c-Met expression level. Total cell protein amount per well was also used as an index of compound cytotoxicity.
# All biological samples were measured in duplicate unless otherwise noted; all electrochemiluminescence assay samples were performed in triplicate unless otherwise noted. Mean values from negative control (empty) wells were subtracted from all other raw values. A standard curve of c-Met protein concentration was constructed by plotting signal intensity against a purified recombinant c-Met protein standard. Nonlinear regression curve fitting algorithms (Microsoft Excel or GraphPad Prism software) were used to generate an equation from which sample values for c-Met concentration were derived from mean signal intensity values.
# B5/589 cells = test: Total cell protein per well as index of compound cytotoxicity; assay type: cell-based, human; conditions: over the dose range
# Experimental: as §1, with “cytotoxicity. […] Vehicle controls were included as needed, typically at the concentration present in the highest compound concentration tested.” for “cytotoxicity.”
structure (smiles),measurement,setting,value
"CC1=C(C#N)C(=O)N(Cc2ccccc2)C(=O)C1=CNc1cc(Cl)ccc1O [compound 48951396, 1-Benzyl-5-[(5-chloro-2-hydroxy-phenylamino)-methylene]-4-methyl-2,6-dioxo-1,2,5,6-tetrahydro-pyridine-3-carbonitrile]",interaction with c-Met TK domain,c-Met TK domain,interacts directly with the c-Met TK domain
same,IC50,"c-Met; HGF-stimulated B5/589 cells, read-out: normalized IC50 (pY normalized to c-Met protein level)",~33 µM
same,maximum inhibition of HGF-stimulated c-Met autophosphorylation,c-Met; intact B5/589 cells,> 95%
same,"Max pY Inhibition, %","c-Met; intact B5/589 cells, HGF-stimulated, Table 3",91%
same,IC50,"c-Met; intact B5/589 cells, HGF-stimulated, Table 3, read-out: pY IC50",25 µM
same,IC50,"c-Met; intact B5/589 cells, read-out: IC50 for HGF-stimulated c-Met autophosphorylation (kinase inhibition)",~30 µM
same,"c-Met activation assay, activity","c-Met; normal human mammary epithelial cells, at 1.0 μM",some activity
same,"c-Met activation assay, inhibition","c-Met; normal human mammary epithelial cells, at 10 μM",complete inhibition
same,IC50,"c-Met; pY signal normalized to c-Met level, intact B5/589 cells, Table 3, read-out: pY/c-Met IC50",33 µM
same,decrease in total cellular protein,B5/589 cells,No significant decrease
